Reference: patent publication US7202239B2, “Cyclohexylphenyl carboxamides tocolytic oxytocin receptor antagonists” (Wyeth, priority 2001, dated 2007)

Target: T1, human oxytocin receptor (Homo sapiens, UniProt P30559)
T1 sequence (P30559 1-389): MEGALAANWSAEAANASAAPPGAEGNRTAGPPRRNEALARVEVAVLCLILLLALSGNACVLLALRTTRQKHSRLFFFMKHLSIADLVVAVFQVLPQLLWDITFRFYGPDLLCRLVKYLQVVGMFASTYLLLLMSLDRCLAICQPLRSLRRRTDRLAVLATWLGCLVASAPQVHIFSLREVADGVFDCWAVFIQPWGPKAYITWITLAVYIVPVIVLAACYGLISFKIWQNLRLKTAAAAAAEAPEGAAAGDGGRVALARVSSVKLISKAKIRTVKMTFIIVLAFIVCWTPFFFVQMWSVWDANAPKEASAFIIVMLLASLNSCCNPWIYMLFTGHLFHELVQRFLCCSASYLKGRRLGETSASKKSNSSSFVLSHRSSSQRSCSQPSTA
Assay: Oxytocin binding in CHO cell membranes expressing human oxytocin receptors
Conditions: 100 nM, [3H]oxytocin
Excerpt: Oxytocin Binding in Chinese Hamster Ovary Cell Membranes Expressing Human Oxytocin Receptors
Chinese Hamster Ovary (CHO) cells stably transfected with the human oxytocin receptor (cf. Tanizawa et al., U.S. Pat. No. 5,466,584 (1995) to Rohto Pharmaceutical Co. Ltd., Osaka, Japan) were obtained from M. Thibonnier, Case Western Reserve University School of Medicine, Cleveland, Ohio. A. Passaging and Amplification of Cells: CHO cells transfected with the human oxytocin receptors obtained from M. Thibonnier (pcDNA3.1 vector) are allowed to grow to confluency (approx. >90%) in T-150 flasks under sterile conditions, in a cell culture medium of F-12 Nutrient Mixture (HAM) with L-glutamine (Gibco Cat. # 11765-054) containing 15 mM HEPES (Gibco Cat. # 15630-080), 1% antibiotic/antimycotic (add 5 mL 100×, Gibco Cat. # 15240-062 per 500 mL F-12), 400 μg/mL of Geneticin (add 4 mL of 50 mg/mL per 500 mL F-12) and 10% Fetal Bovine Serum (Qualified, heat inactivated, Gibco Cat. # 16140-063). The medium is removed by aspiration and the cells are washed with 10 mL of Hank's Balanced Salt solution (Gibco Cat. # 14175-095). The salt solution is removed by aspiration and the cells trypsinized with 5 mL of trypsin-EDTA (0.05% trypsin, 0.53 mM EDTA-4Na, Gibco Cat. # 25300-070) for 1 min The trypsin is removed by aspiration and the cells dislodged by tapping. Cell Culture medium (e.g. 30 mL for 1:30 split) is immediately added and mixed well to inactivate trypsin. 1 mL of detached cells is added to new culture flasks containing fresh Cell Culture medium (e.g. into 25 mL per T-150 flask), and mixed gently. The cells are incubated at 37° C. in 5% CO2. The medium is changed at 3 to 4 days interval (or as appropriate). The cells grow to confluency (approx. >75%–95%) within 7–8 days. All steps are done under sterile conditions. B. Membrane Preparation: The cells are washed twice gently with Hank's Balanced Salt solution (eg, use 10 mL per T-150 flask). The excess solution is removed and the cells bathed for 15–30 min. in an enzyme-free Cell Dissociation Buffer (eg, use 8 mL Hank's Based, Gibco Cat. # 13150-016 per T-150 flask) until cells are loosened. The contents are transferred to centrifuge tubes (50 mL size) kept in ice bath. All subsequent steps are done at 4° C. The tubes are centrifuged at 300×g for 15 min (1380 rpm on SORVAL, Model RT6000D, using rotor for 50 mL tubes). The supernatant is discarded and the cells suspended in homogenizing buffer (10 mM Tris-HCl containing 0.25 M sucrose and 1 mM EDTA, pH 7.4) ensuring that the volume of the buffer is about ten times the volume of the cell pellet. The cells are pooled into a centrifuge tube (50 mL) and homogenized with a Polytron at setting 6 for 10 sec. The homogenate is transferred into a Potter-Elvjehm homogenizer and homogenized with 3 strokes. The homogenate is centrifuged at 1500×g for 10 min at 4° C. (3100 rpm using SORVAL, model RT6000D, using rotor for 50 mL tubes). The pellet is discarded. The supernatant is centrifuged at 100,000×g for 60 min. at 4° C. (Beckman L8-80M ultracentrifuge; spin at 37,500 rpm with rotor type 70 Ti for 50 mL tubes; 38,000 rpm with type 80Ti for 15 mL tubes; or 35,800 rpm with rotor type 45Ti). The supernantant is discarded and the pellet suspended in 3 to 4 mL of Tris buffer (50 mM TRIS-HCl, pH 7.4). The protein content is estimated by the Bradford or Lowry method. The volume of the membrane suspension is adjusted with the membrane buffer (50 mM Tris-HCl containing 0.1% BSA and 0.1 mM PMSF) to give 3.0 mg/mL (or as appropriate) of protein. The membranes are aliquoted and stored at −70° C. C. Radioligand Binding Assay: In wells of a 96-well format microtiter plate, is added 90, 110 or 130 μL (to make up a final volume of 200 μL) of assay buffer containing 50 mM of Tris-HCl (pH 7.4), […], 1 mg % aprotinin, 1 mg % leupeptin, 2 mg % 1,10-phenanthroline, 10 mg % trypsin inhibitor, and 0.1 mM PMSF. […]

| OT % inhibition at 100 nM [%] | Compound |
| --- | --- |
| 91 | O=C(c1ccc(C2CCCCC2)cc1)N1Cc2ccc(C(=O)N3CCC[C@H]3CN3CCCC3)n2Cc2ccccc21 [Example 46, [10-(4-Cyclohexyl-benzoyl)-10,11-dihydro-5H-pyrrolo[2,1-c][1.4]benzodiazepin-3-yl][(2S)-2-(1-pyrrolidinylmethyl)pyrrolidinyl]methanone] |
| 82 | CN(C)[C@@H]1CCN(C(=O)c2ccc3n2Cc2ccccc2N(C(=O)c2ccc(C4CCCCC4)cc2)C3)C1 [Example 47, [10-(4-Cyclohexyl-benzoyl)-10,11-dihydro-5H-pyrrolo[2,1-C][1,4]benzodiazepin-3-yl][(3R)-3-(dimethylamino)pyrrolidinyl]methanone] |
| 78 | O=C(c1ccc2n1Cc1ccccc1N(C(=O)c1ccc(C3CCCCC3)cc1)C2)N1CCN(CCO)CC1 [Example 48, [10-(4-Cyclohexyl-benzoyl)-10,11-dihydro-5H-pyrrolo[2,1-c][1,4]benzodiazepin-3-y][4-(2-hydroxyethyl)-1-piperazinyl]methanone] |
| 4 | O=C(c1ccc2n1Cc1ccccc1N(C(=O)c1ccc(C3CCCCC3)cc1)C2)N1CCN(c2ccncc2)CC1 [Example 54, [10-(4-Cyclohexyl-benzoyl)-10,11-dihydro-5H-pyrrolo[2,1-c][1,4]benzpdiazepin-3-yl][4-(4-pyridinyl)-1-piperazinyl]-methanone] |

Same assay, conditions: 100 nM, [3H]oxytocin, read-out: OT % inhibition at 100 nM

| inhibition at 0.1 µM [%] | Compound |
| --- | --- |
| 13 | O=C(NCCCn1ccnc1)c1ccc2n1Cc1ccccc1N(C(=O)c1ccc(C3CCCCC3)cc1)C2 [Example 36, 10-(4-Cyclohexyl-benzoyl)-N-[3-(1H-imidazol-1-yl)propyl]-10,11-dihydro-5H-pyrrolo[2,1-c][1,4]benzodiazepine-3-carboxamide] |
| 61 | O=C(NCCN1CCCCC1)c1ccc2n1Cc1ccccc1N(C(=O)c1ccc(C3CCCCC3)cc1)C2 [Example 37, 10-(4-Cyclohexyl-benzoyl)-N-[2-(1-piperidinyl)ethyl]-10,11-dihydro-5H-pyrrolo[2,1-c][1,4]benzodiazepine-3-carboxamide] |
| 57 | CN1CCCC1CCNC(=O)c1ccc2n1Cc1ccccc1N(C(=O)c1ccc(C3CCCCC3)cc1)C2 (stereo not shown) [Example 38, 10-(4-Cyclohexyl-benzoyl)-N-[2-(1-methyl-2-pyrrolidinyl)ethyl]-10,11-dihydro-5H-pyrrolo[2,1-c][1,4]benzodiazepine-3-carboxamide] |
| 85 | CN1CCC(N(C)C(=O)c2ccc3n2Cc2ccccc2N(C(=O)c2ccc(C4CCCCC4)cc2)C3)CC1 [Example 39, 10-(4-Cyclohexyl-benzoyl)-N-methyl-N-(1-methyl-4-piperidinyl)-10,11-dihydro-5H-pyrrolo[2,1-c][1,4]benzodiazepine-3-carboxamide] |
| 60 | CN1CCC(N(C)C(=O)c2ccc3n2Cc2ccccc2N(C(=O)c2ccc(C4CCCCC4)cc2)C3)C1 (stereo not shown) [Example 40, 10-(4-Cyclohexyl-benzoyl)-N-methyl-N-(1-methyl-3-pyrrolidinyl)-10,11-dihydro-5H-pyrrolo[2,1-c][1,4]benzodiazepine-3-carboxamide] |
| 31 | CN(C)CCN1CCN(C(=O)c2ccc3n2Cc2ccccc2N(C(=O)c2ccc(C4CCCCC4)cc2)C3)CC1 [Example 41, [10-(4-Cyclohexyl-benzoyl)-10,11-dihydro-5H-pyrrolo[2,1-c][1,4]benzodiazepin-3-yl]{4-[2-(dimethylamino)ethyl]-1-piperazinyl}methanone] |
| 65 | O=C(c1ccc2n1Cc1ccccc1N(C(=O)c1ccc(C3CCCCC3)cc1)C2)N1CCN(CCN2CCOCC2)CC1 [Example 42, [10(4-Cyclohexyl-benzoyl)-10,11-dihydro-5H-pyrrolo[2,1-c][1,4]benzodiazepin-3-yl]{4-[2-(4-morpholinyl)ethyl]-1-piperazinyl}methanone] |
| 1 | C=CCN1CCN(C(=O)c2ccc3n2Cc2ccccc2N(C(=O)c2ccc(C4CCCCC4)cc2)C3)CC1 [Example 43, (4-Allyl-1-piperazinyl)[10-(4-cyclohexyl-benzoyl)-10,11-dihydro-5H-pyrrolo[2,1-c][1,4]benzodiazepin-3-yl]methanone] |
| 2 | CC(C)N1CCN(C(=O)c2ccc3n2Cc2ccccc2N(C(=O)c2ccc(C4CCCCC4)cc2)C3)CC1 [Example 44, [10-(4-Cyclohexyl-benzoyl)-10,11-dihydro-5H-pyrrolo[2,1-c][1,4]benzodiazepin-3-yl](4-isopropyl-1-piperazinyl)methanone] |
| 71 | CN(C)CCCN1CCN(C(=O)c2ccc3n2Cc2ccccc2N(C(=O)c2ccc(C4CCCCC4)cc2)C3)CC1 [Example 45, [10-(4-Cyclohexyl-benzoyl)-10,11-dihydro-5H-pyrrolo[2,1-c][1,4]benzodiazepin-3-yl]{4-[3-(dimethylamino)propyl]-1-piperazinyl}methanone] |
| -2 | O=C(NCCc1ccccn1)c1ccc2n1Cc1ccccc1N(C(=O)c1ccc(C3CCCCC3)cc1)C2 [Example 49, 10-(4-Cyclohexyl-benzoyl)-N-[2-(2-pyridinyl)ethyl]-10,11-dihydro-5H-pyrrolo[2,1-c][1,4]benzodiazepine-3-carboxamide] |
| -8 | O=C(NCc1ccccn1)c1ccc2n1Cc1ccccc1N(C(=O)c1ccc(C3CCCCC3)cc1)C2 [Example 50, 10-(4-Cyclohexyl-benzoyl)-N-(2-pyridinylmethyl)-10,11-dihydro-5H-pyrrolo[2,1-c][1,4]benzodiazepine-3-carboxamide] |
| -8 | O=C(NCc1cccnc1)c1ccc2n1Cc1ccccc1N(C(=O)c1ccc(C3CCCCC3)cc1)C2 [Example 51, 10-(4-Cyclohexyl-benzoyl)-N-(3-pyridinylmethyl)-10,11-dihydro-5H-pyrrolo [2,1-c][1,4]benzodiazepine-3-carboxamide] |
| 45 | CN(CCc1ccccn1)C(=O)c1ccc2n1Cc1ccccc1N(C(=O)c1ccc(C3CCCCC3)cc1)C2 [Example 52, 10-(4-Cyclohexyl-benzoyl)-N-methyl-N-[2-(2-pyridinyl)-ethyl]-10,11-dihydro-5H-pyrrolo[2,1-c][1,4]benzodiazepine-3-carboxamide] |
| 25 | O=C(NCc1ccncc1)c1ccc2n1Cc1ccccc1N(C(=O)c1ccc(C3CCCCC3)cc1)C2 [Example 53, 10-(4-Cyclohexyl-benzoyl)-N-(4-pyridinylmethyl)-10,11-dihydro-5H-pyrrolo[2,1-c][1,4]benzodiazepine-3-carboxamide] |
